Source: patent US20240293553A1, “P-SELECTIN INHIBITORS AND USES THEREOF” (Beth Israel Deaconess Medical Center, Inc., priority 2021, published 2024)
“And” between values parts separate entries of the source, which are not always exact repeats. Identical values can stand only once. Like-named read-outs stand apart in the source and are kept apart here. Blank lines part the entries; values can stand above or below the compound they belong to. Square brackets hold non-standard residues; d marks the D form. Ends that are not written are not given here. Peptide text beside a SMILES is read from it. * marks the point of attachment. X1 = CC(=O)N[C@H]1[C@H](OCCn2cc(C*)nn2)O[C@H](CO)[C@@H](O[C@@H]2O[C@H](CO)[C@H](O)[C@H](O[C@]3(C(=O)O)C[C@H](O)[C@@H](NC(C)=O)[C@H]([C@H](O)[C@H](O)CO)O3)[C@H]2O)[C@@H]1O[C@@H]1O[C@@H](C)[C@@H](O)[C@@H](O)[C@@H]1O; Phe(4-CH2SO3H) = N[C@@H](Cc1ccc(CS(=O)(=O)O)cc1)C(=O)O

What was measured:
in vivo = details: C57BL/6, mouse, iv, 8 umol/kg
[1] = tested on: PL1, a monoclonal antibody specific to the N-terminal PSGL-1 peptide sequence; experiment: Glycopeptide microarray binding assay, PL1
Method: (§1) For a multi-panel experiment on a single slide, the array layout was designed using Piezoarray software according to the dimension of a standard 14-chamber adaptor. The adaptor was applied on the slide to separate a single slide to 14 chambers sealed from each other during the experiment. All glycopeptides and control samples were printed on an NHS-activated glass slide in phosphate buffer (300 mM sodium phosphates, pH 8.5). The average spot volume was within 10% variation (intra-tip) of 0.33 nL. The average spot size was 100 μm. […] These AEAB derivatives and control biotin-NHNH2, all at 50 μM concentration, were printed on the microarray as controls and reference standards. After printing, the slide was placed in a high moisture chamber at 50° C. and incubated for 1 h. The slide was subsequently washed and blocked with 50 mM ethanolamine in 0.1 M Tris buffer (pH 8.0) for 1 h, dried by centrifugation, and stored desiccated at −20° C. prior to use. […] The scanned images were analyzed using ScanArray Express software.
(§2) The binding affinity of G4 towards P-selectin was initially screened using microarray technology. G4 along with 11 additional structural variants and synthetic intermediates, as well as five glycan standards (sLe^x, NA2, NA2,3, NA2,6, asialobiantennary, asialotetra-saccharide) were printed on an NHS-activated glass slide (FIGS. 7A-7C). […]

[2] = tested on: HECA-452, a monoclonal antibody specific to sLe^x; experiment: Glycopeptide microarray binding assay, HECA-452
Method: as §1
(§3) The binding affinity of G4 towards P-selectin was initially screened using microarray technology. G4 along with 11 additional structural variants and synthetic intermediates, as well as […] glycan standards (sLe^x, NA2, NA2,3, NA2,6, asialobiantennary, asialotetra-saccharide) were printed on an NHS-activated glass slide (FIGS. 7A-7C). The slide was then incubated with a recombinant immunoglobulin (Ig) chimera of P-sel (5 μg mL^−1) or monoclonal antibodies, PL1, specific to the N-terminal PSGL-1 peptide sequence, CHO131, specific to the Core 2 O-glycan terminated with sLe^X, or HECA-452, specific to sLe^x. The array was then washed and incubated with Alexa-488-labelled anti-human IgG antibody (5 μg/mL). […] Of note, the PL1 epitope spans residues 49-62, which includes the key sequence -L-P-E-T-E-P- (84). Thus, modification of the key T residue within the PL1 epitope alters PL1 binding, but not P-selectin binding. Binding of glycopeptide mimics was Ca2^+ dependent and inhibited by EDTA.

[3] = tested on: platelet-leukocyte aggregates; experiment: Platelet-leukocyte aggregation in mouse whole blood (PAR4-activating peptide), flow cytometry; assay type: cell-based; details: 120 μM
Method: (§4) Platelet-leukocyte aggregates were quantified in whole blood using dual-label flow cytometry (CytoFlex LX, Beckman Coulter). […] Platelet-leukocyte aggregates were quantified by two-color flow cytometry by incubating human samples with anti-CD45-APC (BD Biosciences) and anti-CD42a-FITC (BD Biosciences) and mouse samples with anti-CD45-eFluor506 (Invitrogen), anti-CD11b-APC (BD Biosciences), anti-Ly-6G-PE (BD Biosciences), and anti-CD41-FITC (BD Biosciences). […] Inhibition experiments were conducted in triplicate.
(§5) PSGL-1/P-selectin binding are responsible for the generation of platelet-leukocyte aggregates, which leads to the release of neutrophil extracellular traps and other procoagulant factors, as well as the infiltration of leukocytes (86, 87).

[4] = tested on: CHO131, a monoclonal antibody specific to the Core 2 O-glycan terminated sLe^x; experiment: Glycopeptide microarray binding assay, CHO131
Method: as §1, §2

[5] = molecular target: T1, murine P-selectin-Fc chimera (Mus musculus, UniProt Q01102); experiment: Flow cytometry inhibition of P-selectin-Fc chimera binding to murine leukocytes; assay type: cell-based; details: P-selectin-Fc chimera 3 μg/mL
T1 construct: purchased R&D Systems

human P-selectin [6] = experiment: Glycopeptide microarray binding assay, P-selectin; details: human P-selectin 5 μg/mL; compounds at 50 μM
Method: as §1, §3

[7] = tested on: platelet-leukocyte aggregates; experiment: Platelet-leukocyte aggregation in human whole blood (PAR1-activating peptide), flow cytometry; assay type: cell-based; details: 120 μM
Method: as §4, §5

P-selectin [8] = molecular target: T2, P-selectin (Homo sapiens, UniProt P16109); details: literature values; cited from earlier work
T2 sequence (P16109 42-830): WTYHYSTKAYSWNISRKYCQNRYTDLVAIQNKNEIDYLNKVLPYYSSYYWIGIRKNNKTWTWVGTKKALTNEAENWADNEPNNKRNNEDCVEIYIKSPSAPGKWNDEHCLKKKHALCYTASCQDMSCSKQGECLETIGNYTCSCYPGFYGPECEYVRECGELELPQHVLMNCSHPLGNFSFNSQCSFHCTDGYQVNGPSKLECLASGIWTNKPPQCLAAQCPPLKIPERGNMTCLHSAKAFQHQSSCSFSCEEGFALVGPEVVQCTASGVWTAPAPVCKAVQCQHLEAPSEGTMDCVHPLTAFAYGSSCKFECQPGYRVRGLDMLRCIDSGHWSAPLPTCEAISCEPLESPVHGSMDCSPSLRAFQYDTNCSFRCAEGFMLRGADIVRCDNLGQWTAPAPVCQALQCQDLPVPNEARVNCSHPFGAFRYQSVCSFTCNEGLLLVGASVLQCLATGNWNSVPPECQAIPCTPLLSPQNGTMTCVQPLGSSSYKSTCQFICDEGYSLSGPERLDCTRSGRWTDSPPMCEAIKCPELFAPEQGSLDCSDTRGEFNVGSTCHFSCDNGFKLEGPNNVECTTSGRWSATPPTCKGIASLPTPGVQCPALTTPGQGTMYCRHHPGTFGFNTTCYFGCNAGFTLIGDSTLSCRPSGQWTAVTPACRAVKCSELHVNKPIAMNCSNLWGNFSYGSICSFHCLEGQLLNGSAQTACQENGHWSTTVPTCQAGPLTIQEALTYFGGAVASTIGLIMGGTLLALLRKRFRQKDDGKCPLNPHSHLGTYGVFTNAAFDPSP

human P-selectin [9] = experiment: Biacore surface plasmon resonance binding assay (biotinylated ligand captured, P-selectin-Ig flowed); details: human P-selectin-Ig 0.4-100 nM
Method: Biotinylated G4 was first captured quantitatively on a streptavidin-coated sensor chip (GE Healthcare). Different amounts of P-selectin-Ig chimera (P-Sel-Ig) were incubated in the wells (0.4-100 nM) and bound P-selectin detected using fluorescently labelled anti-human IgG. PL1 and CHO131 were used to confirm the immobilization step and to compare the relative amount of glycopeptide on the chip. Bound monoclonal antibodies and P-selectin were removed from the sensor chip by injecting 10 mM glycine-HCl, pH 2.0 and 50 mM EDTA, respectively, at 20 μL/min for 30 s. The kinetic parameters were obtained by plotting the curves using a 1:1 binding model provided by the Biacore evaluation software.

P-selectin [10] = molecular target: T2, P-selectin; details: reported values; cited from earlier work
venous thrombus = experiment: Murine model of non-occlusive venous thrombosis (electrolytic injury of the inferior vena cava); assay type: in vivo, C57BL/6 mice; details: 48 h after injury; glycopeptide 8 μmol/kg IV, LMWH (enoxaparin) 6 mg/kg SC

T1 sequence (Q01102 with tags, fused parts or gaps limits assumed): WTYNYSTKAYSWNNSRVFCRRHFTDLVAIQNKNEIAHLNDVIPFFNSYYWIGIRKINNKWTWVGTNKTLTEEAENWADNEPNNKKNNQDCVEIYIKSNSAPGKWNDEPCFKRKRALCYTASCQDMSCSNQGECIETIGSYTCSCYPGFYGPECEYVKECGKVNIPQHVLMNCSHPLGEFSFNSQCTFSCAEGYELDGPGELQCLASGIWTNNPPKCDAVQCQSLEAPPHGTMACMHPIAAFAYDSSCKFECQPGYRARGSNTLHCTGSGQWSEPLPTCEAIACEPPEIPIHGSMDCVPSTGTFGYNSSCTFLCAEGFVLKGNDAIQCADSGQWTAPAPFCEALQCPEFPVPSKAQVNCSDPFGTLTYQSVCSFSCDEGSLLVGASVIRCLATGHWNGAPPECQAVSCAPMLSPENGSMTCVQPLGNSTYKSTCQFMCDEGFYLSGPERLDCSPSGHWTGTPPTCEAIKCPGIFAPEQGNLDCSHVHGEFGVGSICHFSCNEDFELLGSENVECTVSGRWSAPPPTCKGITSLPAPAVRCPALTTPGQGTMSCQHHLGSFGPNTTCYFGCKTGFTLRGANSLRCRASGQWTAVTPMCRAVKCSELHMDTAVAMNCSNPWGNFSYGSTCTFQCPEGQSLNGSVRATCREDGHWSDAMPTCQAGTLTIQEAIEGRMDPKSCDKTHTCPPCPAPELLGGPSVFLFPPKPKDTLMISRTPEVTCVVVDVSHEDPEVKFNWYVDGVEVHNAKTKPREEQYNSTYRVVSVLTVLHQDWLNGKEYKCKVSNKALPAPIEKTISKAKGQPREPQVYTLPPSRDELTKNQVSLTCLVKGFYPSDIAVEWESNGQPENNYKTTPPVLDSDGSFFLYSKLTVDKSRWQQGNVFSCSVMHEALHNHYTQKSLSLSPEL

- half-life (in vivo): 13.2 ± 5.04 min
- Binding of PL1 on microarray [1]: neither PL1 or CHO131 bound
- Binding of HECA-452 on microarray [2]: strongly bound
- Binding of CHO131 on microarray [4]: neither PL1 or CHO131 bound
- IC50 ([5]; murine monocytes, read-out: IC50, P-selectin binding to murine monocytes): 10 µM
- IC50 ([5]; murine neutrophils, read-out: IC50, P-selectin binding to murine neutrophils): 10 µM
- Binding to P-selectin on microarray (human P-selectin [6]): strongly bound
Compound: CC(=O)N[C@H]1[C@H](OCCn2cc(CO[C@H](C)[C@H](NC(=O)[C@H](CCC(=O)O)NC(=O)[C@@H]3CCCN3C(=O)[C@H](CC(C)C)NC(=O)[C@H](Cc3ccccc3)NC(=O)[C@H](CC(=O)O)NC(=O)[C@H](Cc3ccc(CS(=O)(=O)O)cc3)NC(=O)[C@H](CC(=O)O)NC(=O)[C@H](CC(C)C)NC(=O)[C@H](Cc3ccc(CS(=O)(=O)O)cc3)NC(=O)[C@H](CCC(=O)O)NC(=O)[C@H](Cc3ccc(CS(=O)(=O)O)cc3)NC(=O)[C@H](CCC(=O)O)NC(=O)[C@H](CCCCN)NC(C)=O)C(=O)N[C@@H](CCC(=O)O)C(=O)N3CCC[C@H]3C(=O)N[C@@H](CC(C)C)C(=O)O)nn2)O[C@H](CO)[C@@H](O[C@@H]2O[C@H](CO)[C@H](O)[C@H](O[C@]3(C(=O)O)C[C@H](O)[C@@H](NC(C)=O)[C@H]([C@H](O)[C@H](O)CO)O3)[C@H]2O)[C@@H]1O[C@@H]1O[C@@H](C)[C@@H](O)[C@@H](O)[C@@H]1O [G4, KEF*EF*LDF*DFLPET(Neu5Acα2-3Galβ1-4(Fucal-3)GlcNAc)EPL] (Ac-KE[Phe(4-CH2SO3H)]E[Phe(4-CH2SO3H)]LD[Phe(4-CH2SO3H)]DFLPET(X1)EPL-OH)
- Inhibition of murine platelet-monocyte aggregates [3]: 41%
- Inhibition of murine platelet-neutrophil aggregates [3]: 38%
- Inhibition of human platelet-monocyte aggregates [7]: 33%
- Inhibition of human platelet-neutrophil aggregates [7]: 28%

Compound: C[C@@H]1O[C@@H](O[C@@H]2[C@@H](NC(=O)c3cc(=O)[nH]c(=O)[nH]3)C[C@@H](C(=O)NCCNC(=O)COCCOCC(=O)Nc3cc(S(=O)(=O)O)cc4cc(S(=O)(=O)O)cc(S(=O)(=O)O)c34)C[C@H]2O[C@@H]2O[C@H](CO)[C@H](O)[C@H](O[C@@H](CC3CCCCC3)C(=O)O)[C@H]2OC(=O)c2ccccc2)[C@@H](O)[C@H](O)[C@@H]1O [GMI-1070]
- IC50 (P-selectin [8]): 423 µM

Compound: O=C(O)c1c(O)c(C2(c3ccc(Cl)cc3)CC2)nc2c(C(F)(F)F)cccc12 [PSI-421, 2-[1-(4-chlorophenyl)cyclopropyl]-3-hydroxy-8-(trifluoromethyl)quinoline-4-carboxylic acid]
- IC50 (P-selectin [8]): 225 µM

- Binding of HECA-452 on microarray [2]: strongly bound
- Binding to P-selectin on microarray (human P-selectin [6]): strongly bound
Compound: EY*EY*LDY*DFLPET(Neu5Acα2-3Galβ1-4(Fucal-3)GlcNAcβ1-6Galβ1-3GalNAcα)EPPEM (EYEYLDYDFLPET(Neu5Acα2‑3Galβ1‑4(Fucal-3)GlcNAcβ1‑6Galβ1‑3GalNAcα)EPPEM; not fully specified (residues 2, 4, 7)) [GSP-6]

- Binding of HECA-452 on microarray [2]: strongly bound
- Kd (human P-selectin [9]): 0.027 µM
- Binding to P-selectin on microarray (human P-selectin [6]): strongly bound
Compound: KEF*EF*LDF*DFLPET(Neu5Acα2-3Galβ1-4(Fucal-3)GlcNAcβ1-6(Galβ1-3)GalNAcα)EPL (KEFEFLDFDFLPET(Neu5Acα2‑3Galβ1‑4(Fucal-3)GlcNAcβ1‑6(Galβ1-3)GalNAcα)EPL; not fully specified (residues 3, 5, 8)) [GSnP-6, previously reported glycosulfonopeptide P-selectin antagonist, reference compound]
- Kd (P-selectin [10]): 0.022 µM and 0.027 µM

Compound: enoxaparin
- venous thrombus formation / thrombus weight versus saline vehicle (venous thrombus): significant reduction
